Results taken from patent US6476039B1, “Ophthalmic composition” (R-Tech Ueno, Ltd., priority 1998, dated 2002).

Tests used:
Type in all cases: in vivo, rabbit
[1] = tested on: alloxan-induced diabetic rabbits; assay: Repair of the wound of keratoepithelial detachment in alloxan-induced diabetic rabbits; conditions: 0.1% eye drop, 30 μL/eye every 4 hours, area immediately after detachment = 100, mean±S.E.
Protocol: Alloxan monohydrate (Lot No. DLJ5619, M.W. 160.09: Wako Pure Chemical Industries, LTD.) of 80 mg/kg was dissolved in 2 mL of physiological saline, and the solution was administered once intravenously of male Japanese albino rabbits [Std: JW/CSK] (11-week-old) to induce diabetes.
Blood glucose was determined weekly after administration of alloxan monohydrate: the mean blood glucose was increased from 142.2±4.7 mg/dL (mean±S.E.; The same is applicable hereinafter.) before administration to 522.5±13.7 mg/dL at 1 week, and this elevated level persisted thereafter. Animals with this alloxan-induced diabetes were used in the experiment. […]
The cornea was stained with fluorescein, and photographs of the anterior ocular segment were taken with the Medical Nikkor Lens attached with a yellow filter (Kodak WRATTEN No.12) and the front part of the flash attached with a blue filter (Kodak WRATTEN No.47). On the projected photographs magnified to the same degree, the stained area was measured with the planimeter. […]
Twelve hours after the keratoepithelial detachment, the area of the wound was measured. Then its relative value was calculated by taking the area of the wound immediately after the keratoepithelial detachment as 100. […]

[2] = tested on: normal (not diabetic) rabbits; assay: Repair of the wound of keratoepithelial detachment in normal rabbits; conditions: 0.2% eye drops, 30 μL/eye every 4 hours, area immediately after detachment = 100
Description: In the Experimental Example 1, the influence in rabbits with alloxan-induced diabetes was investigated, while the influence in normal (not diabetic) rabbits was investigated in this Example.
Ten-week-old male New Zealand White rabbits (weighing 2.07±0.11 kg: mean weight at the start of the experiment) were acclimation period for 7 days, while the animals were examined for the general signs including diarrhea and body weight, etc., and the anterior ocular segment was also observed. Only animals without any abnormality were used in the experiment.
Keratoepithelial detachment wounds were prepared as described in the Experimental Example 1.
The test substance was instilled every 4 hours after the keratoepithelial detachment (the first instillation was made immediately after preparation of the wound of keratoepithelial detachment).
Twelve hours after the keratoepithelial detachment, the area of the wound was measured, and its relative value was calculated by taking the area of the wound immediately after the keratoepithelial detachment as 100, and the relative value was used to assess the extent of repair. The area of the wound of keratoepithelial detachment was measured as described in the Experimental Example 1. […]

[3] = tested on: alloxan-induced diabetic rabbits; assay: Examination of corneal esthesia (Cochet-Bonnet esthesiometer) in alloxan-induced diabetic rabbits
Protocol: (§1) Alloxan monohydrate (Lot No. DLJ5619, M.W. 160.09 Wako Pure Chemical Industries, LTD.) of 80 mg/kg was dissolved in 2 mL of physiological saline, and the solution was administered once intravenously of male Japanese albino rabbits [Std: JW/CSK] (11-week-old) to induce diabetes.
(§2) Blood glucose was determined once a week on 4 times after administration of alloxan monohydrate: animals having always blood glucose of 300 mg/dL or more were used as diabetic animals in this Experiment.
(§3) [3-(4-Bromo-2-fluorobenzyl)-7-chloro-2,4-dioxo- 1,2,3,4-tetrahydroquinazolin- 1-yl]acetate, an active ingredient of this invention, having aldose reductase-inhibiting effect was used for preparation of a 0.3% eye drops, and the eye drops were used as the test substance. The vehicle control was the vehicle of the eye drops simply without the active ingredient.
At the time of intravenous administration of alloxan, the drug was instilled into both eyes at 30 μL/eye four times a day over 4 consecutive weeks. Sixteen eyes of 8 animals in each of the test substance group and the vehicle control group were subjected to the examination of corneal esthesia and the examination of tear secretion as follows.
One hour after the second instillation on the day of examination, each animal was fixed in a stainless steel fixator (SHIBATA GLASS WORKS). The central part, the most sensitive part, of the cornea was stimulated 10 times in rapid sequence with a pressure by applying at the right angle a 30 mm nylon thread (Toray Nylon Monofilament, Type 100, No.0.6, diameter φ: 0.027mm, cross section s: 0.0129) of the Cochet-Bonnet type esthesiometer (Handaya Co., Ltd.) so that the nylon thread might be bent only slightly (pressure: […], measured by Handaya), and the number of blink reflex was taken as the corneal esthesia value. The examination was performed before, 2 weeks after and 4 weeks after administration of alloxan.
In both examinations, the test substance group and the vehicle control group were compared with the Williams's test.

[4] = tested on: alloxan-induced diabetic rabbits; assay: Examination of tear secretion (Schirmer's test) in alloxan-induced diabetic rabbits; conditions: 1 minute
Protocol: as §1, §2, §3
At the time of intravenous administration of alloxan, the drug was instilled into both eyes at 30 μL/eye four times a day over 4 consecutive weeks. […]
One hour after the second instillation on the day of examination, each animal was fixed in a stainless steel fixator, and the edge of the Schirmer's test paper (SHOWA YAKUHIN KAKO, Co., Ltd., Lot No.70080) was inserted into the conjunctival sac to cover the ⅓ of the lower eyelid on the ear side. One minute after, the paper was removed, and the length of the moistened part was read from the scale on the paper. […]

[5] = tested on: rabbits with dry eye syndrome induced by trigeminal denervation; assay: Basal tear secretion in rabbits with dry eye syndrome induced by trigeminal denervation
Description: (§4) Twenty male Japanese albino rabbits [Std:JW/CSK] were used.
(§5) Urethane (ALDRICH, Lot No.069110Q) was intraperitoneally administered at the dose of 1 g/kg to rabbits of which hair at the head after anesthesia had been shaved.
(§6) After disinfection of the shaved area, midline incision of the skin was made from the frontal bone to the ear root, and the periosteum and the muscular tissue around the temporal bone and mandibular articular process were detached. After the detachment, a hole of 2×1.5 cm in size was made in the bone from the parietal medial region to the temporal region by using a bone drill (URAWA KOGYO Co., Ltd., MINITOR.C-130) under the surgical microscope (KONAN CAMERA R& I Inc., PMO-50). Then the dura was detached from the cranial bone while cotton was kept inserted between the temporal bone and the dura. After the detachment was made up to the cranial base, detachment was further made toward the medial border of the petrous part of temporal bone in the cranial cavity, to find the trigeminal nerve in the petrous part. Then the dura of about 1 to 2 mm on the nasal side of the semilunar ganglion was incised. After the incision, the two branches of nerve fascicle, i.e. the first branch of the trigeminal nerve (ocular nerve) and the second branch (maxillary nerve), were pulled laterally and cut with corneoscleral scissors. After confirmation of miosis of the ipsilateral eye immediately after the cut, the cotton kept inserted was removed, and the skin at the head was closed with suture. After the operation, an antibiotic (MYCILLIN SOL®: Meiji) was administered intramuscularly at the dose of 0.1 mL/kg.
(§7) The trigeminal denervation was made only on the left eye side, while the trigeminal denervation on the right eye side or sham operation was not made
(§8) Two-week acclimation period was allowed to pass after the trigeminal denervation.
as §3, with “of 0.03% eye drop, 0.1% eye drop, and” for “of a”, “eye drop, which” for “eye drops, and the eye drops”, “test substances.” for “test substance.”, “the base” for “the vehicle”
(§9) From about 2 weeks after the trigeminal denervation, one of the above-mentioned drugs was instilled at the volume of 30 μL/eye four times a day for 2 consecutive weeks. Five eyes of each of the test substance groups and the control group were examined for the basal tear secretion and the keratoepithelial lesion as follows.
Before the start of instillation (Week 0), and 1 week and 2 weeks after instillation, the basal tear secretion was measured one hour after the second instillation on the day of examination.
Keratoconjunctiva was anesthetized by instillation of 4% lidocaine (Xylocaine® 4% for ophthalmology: Fujisawa Pharmaceutical Co., Ltd.), and the eye drop and the tear around the eyelid were wiped off about 5 minutes later.
When loss of keratoconjunctival esthesia was confirmed with the Cochet-Bonnet type esthesiometer, the edge of the Shirmer's test paper was kept inserted into the conjunctival sac for 5 minutes, and the length of the moistened part was read from the scale on the paper.
The basal tear secretion was expressed by the mean per minute calculated from the 4-minute-value obtained by subtraction of the first-1-minute-value from the 5-minute-value of the Shirmer's test, so that the volume of the tear considered to be retained in the conjunctival sac might be excluded.

[6] = tested on: rabbits with dry eye syndrome induced by trigeminal denervation; assay: Keratoepithelial lesion score in rabbits with dry eye syndrome induced by trigeminal denervation
Description: as §4, §5, §6, §7, §8
as §3, with “of 0.03% eye drop, 0.1% eye drop, and” for “of a”, “eye drop, which” for “eye drops, and the eye drops”, “test substances.” for “test substance.”, “the base” for “the vehicle”
as §9
Before the start of instillation (Week 0), and 1 week and 2 weeks after instillation, the lesion was evaluated one hour after the first instillation on the day of examination.
Each animal was placed in a stainless steel fixator, and given instillation of 50 μL of the mixture of 1% rose bengal and 1% fluorescein, followed by vital staining of the keratoconjunctival epithelium for evaluation of the extent of lesion according to the scoring system shown in Table 5.

[7] = after 4 weeks, 0.3% eye drops, 30 μL/eye four times a day
[8] = before alloxan (baseline), 0.3% eye drops group

SMILES: O=C(O)Cn1c(=O)n(Cc2ccc(Br)cc2F)c(=O)c2ccc(Cl)cc21 [compound of the formula (II), [3-(4-bromo-2-fluorobenzyl)-7-chloro-2,4-dioxo-1,2,3,4-tetrahydroquinazolin-1-yl]acetate]
- Relative area of wound of keratoepithelial detachment 12 hours after keratoepithelial detachment [1]: 89.0 ± 2.7 %
- Relative area of wound of keratoepithelial detachment 12 hours after keratoepithelial detachment [2]: 80.8 ± 2.0 %
- Corneal esthesia value (number of blink reflex on 10 stimulations) ([3]; after 2 weeks, 0.3% eye drops, 30 μL/eye four times a day): 5.3 ± 0.7 number of times
- Corneal esthesia value (number of blink reflex on 10 stimulations) [3, 7]: 5.1 ± 0.6 number of times
- Corneal esthesia value (number of blink reflex on 10 stimulations) [3, 8]: 5.6 ± 0.3 number of times
- tear secretion (Schirmer's test) [4, 7]: 7.1 ± 0.4 mm
- tear secretion (Schirmer's test) [4, 8]: 8.3 ± 0.6 mm
- Basal tear secretion ([5]; 0.03% eye drop group, before instillation (baseline)): 0.38 ± 0.09 mm/minute
- Basal tear secretion ([5]; 0.03% eye drop, 30 μL/eye four times a day, week 1): 0.92 ± 0.17 mm/minute
- Basal tear secretion ([5]; 0.03% eye drop, 30 μL/eye four times a day, week 2): 1.02 ± 0.09 mm/minute
- Basal tear secretion ([5]; 0.1% eye drop group, before instillation (baseline)): 0.38 ± 0.13 mm/minute
- Basal tear secretion ([5]; 0.1% eye drop, 30 μL/eye four times a day, week 1): 1.24 ± 0.14 mm/minute
- Basal tear secretion ([5]; 0.1% eye drop, 30 μL/eye four times a day, week 2): 1.12 ± 0.11 mm/minute
- Basal tear secretion ([5]; 0.3% eye drop group, before instillation (baseline)): 0.34 ± 0.10 mm/minute
- Basal tear secretion ([5]; 0.3% eye drop, 30 μL/eye four times a day, week 1): 1.24 ± 0.16 mm/minute
- Basal tear secretion ([5]; 0.3% eye drop, 30 μL/eye four times a day, week 2): 1.20 ± 0.15 mm/minute
- Keratoepithelial lesion ([6]; 0.03% eye drop group, before instillation (baseline), score 0-4 by stained area (Table 5)): 2.8 ± 0.4 score
- Keratoepithelial lesion ([6]; 0.03% eye drop, four times a day, week 1, score 0-4 (Table 5)): 0.5 ± 0.4 score
- Keratoepithelial lesion ([6]; 0.03% eye drop, four times a day, week 2, score 0-4 (Table 5)): 0.2 ± 0.1 score
- Keratoepithelial lesion ([6]; 0.1% eye drop group, before instillation (baseline), score 0-4 (Table 5)): 3.0 ± 0.6 score
- Keratoepithelial lesion ([6]; 0.1% eye drop, four times a day, week 1, score 0-4 (Table 5)): 0.4 ± 0.2 score
- Keratoepithelial lesion ([6]; 0.1% eye drop, four times a day, week 2, score 0-4 (Table 5)): 0.4 ± 0.2 score
- Keratoepithelial lesion ([6]; 0.3% eye drop group, before instillation (baseline), score 0-4 (Table 5)): 3.0 ± 0.5 score
- Keratoepithelial lesion ([6]; 0.3% eye drop, four times a day, week 1, score 0-4 (Table 5)): 0.5 ± 0.4 score
- Keratoepithelial lesion ([6]; 0.3% eye drop, four times a day, week 2, score 0-4 (Table 5)): 0.1 ± 0.1 score
